In ChEMBL document CHEMBL3044756, “Distribution of trunk-injected ¹⁴C-imidacloprid in ash trees and effects on emerald ash borer (Coleoptera: Buprestidae) adults” (2009) one finds Activity data, which are given here for one molecule.

Holding throughout (assay type): functional
For experiment [1], the system named is Agrilus planipennis. In words: Insecticidal activity against Agrilus planipennis isolated from 21 days after 25 uCi compound treated by trunk injected ash tree leaves assessed as mortality at 64 ug/g.
Experiment [2] has as its system Agrilus planipennis. In words: Insecticidal activity against Agrilus planipennis isolated from 21 days after 25 uCi compound treated by trunk injected ash tree leaves assessed as mortality at 0.55 to 60 ug/g.
For experiment [3], the system named is Agrilus planipennis. In words: Insecticidal activity against Agrilus planipennis isolated from 45 days after 25 uCi compound treated by trunk injected ash tree leaves assessed as mortality measured after 3 days of feeding.
In experiment [4] the test system is Agrilus planipennis. In words: Insecticidal activity against Agrilus planipennis infected ash trees assessed as mortality at 25 uCi treated by trunk injection measured after 45 days.
Experiment [5] concerns Agrilus planipennis. In words: Insecticidal activity against Agrilus planipennis isolated from 21 days after 25 uCi compound treated by trunk injected ash tree leaves assessed as mortality measured after 3 days of feeding.
Experiment [6] deals with Agrilus planipennis. Kind of experiment: Insecticidal activity against Agrilus planipennis infected ash trees assessed as mortality at 25 uCi treated by trunk injection measured after 21 days.

Consider `O=[N+]([O-])/N=C1\NCCN1Cc1ccc(Cl)nc1` [IMIDACLOPRID], for which the Activity in the experiment on Agrilus planipennis [1] was found to be 70%; with Agrilus planipennis [2], 11%; in the experiment with Agrilus planipennis [3], 70%; in the experiment on Agrilus planipennis [4], 17%; in the experiment with Agrilus planipennis [5] it was 44%; with Agrilus planipennis [6] it was 11%.
